Assay results reported in PMC6080930 (The Journal of Cell Biology, 2018).

Biological target: adenylyl cyclase A (ACA); ACA-YFP (Dictyostelium discoideum, UniProt Q03100)
Details: labelled compound; 2 mM MnSO4, 2 mM MgSO4, Tris pH 8.0, 22°C, 10 min; lysed EVs

adenylyl cyclase A (ACA); ACA-YFP, sequence (Q03100 whole entry): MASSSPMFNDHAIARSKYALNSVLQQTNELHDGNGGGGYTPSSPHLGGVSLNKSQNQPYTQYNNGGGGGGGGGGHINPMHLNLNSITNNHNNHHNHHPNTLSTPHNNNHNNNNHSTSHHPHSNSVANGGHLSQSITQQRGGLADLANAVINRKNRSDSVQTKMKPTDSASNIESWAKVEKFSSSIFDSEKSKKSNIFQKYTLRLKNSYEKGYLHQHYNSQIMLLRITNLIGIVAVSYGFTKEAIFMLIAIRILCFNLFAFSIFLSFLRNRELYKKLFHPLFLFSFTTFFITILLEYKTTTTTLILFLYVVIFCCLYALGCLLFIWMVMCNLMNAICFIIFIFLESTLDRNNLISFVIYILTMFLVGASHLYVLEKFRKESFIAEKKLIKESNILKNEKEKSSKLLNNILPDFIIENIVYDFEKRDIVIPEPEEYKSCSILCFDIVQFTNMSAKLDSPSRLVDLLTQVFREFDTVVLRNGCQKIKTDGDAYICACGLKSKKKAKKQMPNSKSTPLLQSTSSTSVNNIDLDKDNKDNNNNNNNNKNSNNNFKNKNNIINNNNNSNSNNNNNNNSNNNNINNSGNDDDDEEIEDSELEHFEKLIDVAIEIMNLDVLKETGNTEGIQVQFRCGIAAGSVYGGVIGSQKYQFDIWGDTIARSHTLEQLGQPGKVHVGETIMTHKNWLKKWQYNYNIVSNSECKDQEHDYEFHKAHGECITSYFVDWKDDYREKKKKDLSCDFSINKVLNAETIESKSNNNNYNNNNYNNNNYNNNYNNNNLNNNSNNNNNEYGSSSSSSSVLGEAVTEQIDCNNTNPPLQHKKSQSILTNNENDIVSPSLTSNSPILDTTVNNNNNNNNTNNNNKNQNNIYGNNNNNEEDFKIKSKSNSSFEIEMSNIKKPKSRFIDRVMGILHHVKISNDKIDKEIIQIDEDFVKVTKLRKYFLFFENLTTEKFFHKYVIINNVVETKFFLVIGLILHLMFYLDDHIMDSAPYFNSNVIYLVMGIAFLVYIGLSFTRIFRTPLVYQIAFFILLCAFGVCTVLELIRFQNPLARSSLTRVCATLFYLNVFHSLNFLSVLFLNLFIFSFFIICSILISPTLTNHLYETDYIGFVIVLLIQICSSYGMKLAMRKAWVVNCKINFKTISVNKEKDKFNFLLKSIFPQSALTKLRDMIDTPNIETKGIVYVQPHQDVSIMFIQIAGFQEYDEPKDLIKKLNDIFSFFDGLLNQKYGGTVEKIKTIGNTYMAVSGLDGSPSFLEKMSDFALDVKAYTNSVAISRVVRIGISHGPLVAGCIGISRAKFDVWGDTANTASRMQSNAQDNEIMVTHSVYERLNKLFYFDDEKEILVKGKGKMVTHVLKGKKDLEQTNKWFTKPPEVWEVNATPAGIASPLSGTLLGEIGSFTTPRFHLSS

Nc1ncnc2c1ncn2[C@@H]1O[C@H](COP(=O)(O)OP(=O)(O)OP(=O)(O)O)[C@@H](O)[C@H]1O [ATP]
conversion of [32P]ATP to [32P]cAMP, Dowex/alumina columns: MnSO4 induced an increase in adenylyl cyclase activity in ACA-YFP/aca^− EVs
